Assay results: patent publication US20030086923A1, “Method for the prevention and/or treatment of atherosclerosis” (priority 1999, published 2003)

Columns and labels:
human PPARδ = target: T1, human PPARδ (Homo sapiens, UniProt Q03181); assay: PPARδ competition binding assay
T1 sequence (Q03181 1-441): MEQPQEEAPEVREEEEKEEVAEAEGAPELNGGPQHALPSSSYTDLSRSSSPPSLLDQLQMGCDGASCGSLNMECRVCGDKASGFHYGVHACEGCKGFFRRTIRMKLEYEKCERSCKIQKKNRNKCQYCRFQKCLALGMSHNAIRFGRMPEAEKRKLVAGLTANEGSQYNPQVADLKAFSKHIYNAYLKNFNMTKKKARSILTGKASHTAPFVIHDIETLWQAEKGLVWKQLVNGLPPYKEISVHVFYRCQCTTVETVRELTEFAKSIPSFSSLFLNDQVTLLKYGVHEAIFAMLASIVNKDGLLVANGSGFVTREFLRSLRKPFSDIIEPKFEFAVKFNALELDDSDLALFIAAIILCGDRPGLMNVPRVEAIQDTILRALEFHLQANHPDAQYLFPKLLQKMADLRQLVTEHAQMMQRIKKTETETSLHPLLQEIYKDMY
Description: The term ligand throughout this application should be understood to include an agonist, partial agonist or antagonist of LXR. The ligand may be selective for LXRα or LXRβ, or it may have mixed binding affinity for both LXRα and LXRβ. Particularly, compounds within the scope of this invention include those which have greater selectivity as determined by binding affinity for LXRα and/or LXRβ receptors than they have for each of the PPARα, γ and δ receptors.

[1] = test system: cholesterol-loaded THP-1 macrophages; assay: Stimulation of cholesterol efflux from cholesterol-loaded THP-1 macrophages; type: cell-based, human; conditions: 1 μM, 24 hours, mean±SEM
Description: Stimulation of Cholesterol Efflux from Cholesterol-Loaded Cells
To determine if LXR agonists could increase cholesterol efflux in cells that were loaded with excess cholesterol, THP-1 cells were loaded with cholesterol using acetylated LDL prior to the assay of cholesterol efflux Specifically, cultured human THP-1 cells were stimulated to differentiate into macrophages as described above. After differentiation, the THP-1 macrophages were loaded with cholesterol and simultaneously labeled with ^3H-cholesterol using acetylated LDL containing ^3H-cholesterol essentially as described by Kritharides et al. (1998) Arterioscler Thromb Vasc Biol. 18:1589-1599. After 24 hours of incubation with 100 μg/ml of acetylated LDL labelled with ^3H-cholesterol, the cells were incubated in Complete RPMI medium containing 0.1% lipid-free BSA for 24 hours to allow for equilibration of cellular cholesterol pools. Cholesterol efflux was then measured over the following 24 hours by incubating the cells in Complete RPMI medium with either apoA-I or HDL as cholesterol acceptor, and with either 1 μM Compound 1 or DMSO as control.

human GST-LXRα receptor = target: T2, human GST-LXRα receptor (Homo sapiens, UniProt Q13133); assay: Radioligand competition binding scintillation proximity assay, LXRα
T2 construct: made in house; host or cells: E. coli (pGEX-KT vector)
T2 sequence (Q13133 164-447): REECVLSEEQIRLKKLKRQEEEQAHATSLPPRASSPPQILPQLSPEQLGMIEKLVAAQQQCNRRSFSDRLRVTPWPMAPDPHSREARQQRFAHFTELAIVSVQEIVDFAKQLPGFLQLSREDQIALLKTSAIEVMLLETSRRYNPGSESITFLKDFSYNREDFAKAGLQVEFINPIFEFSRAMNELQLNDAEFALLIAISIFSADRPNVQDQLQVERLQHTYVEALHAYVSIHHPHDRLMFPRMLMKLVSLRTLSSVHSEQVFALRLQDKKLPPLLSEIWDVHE
Description: Radioligand Competition Binding Scintillation Proximity Assays:
Preparation of Recombinant Human LXRα and LXRβ:
Human LXRα and LXRβ were expressed as GST-fusion proteins in E. coli. The ligand binding domain cDNAs for human LXRα (amino acids 164-447) and human LXRβ (amino acids 149-455) were subcloned into the pGEX-KT expression vector (Pharmacia). E. coli containing the respective plasmids were propagated, induced, and harvested by centrifugation. The resuspended pellet was broken in a French press and debris was removed by centrifugation. Recombinant human LXR receptors were purified by affinity chromatography on glutathione sepharose and receptor was eluted with glutathione. Glycerol was added to a final concentration of 50% to stabilize the receptor and aliquots were stored at −80° C.
After incubation for ˜16 h at 15° C. with shaking, the assay plates were counted in a Packard Topcount.

ABC1 mRNA = assay: Induction of ABC1 mRNA levels in THP-1 macrophages; type: cell-based; conditions: Homo sapiens, ABC-1, 0.10 μM, 6 hours, vs DMSO control, read-out: Fold Induction of ABC1 mRNA (Mean ± SEM)
Procedure: Induction of ABC1 mRNA levels
Cultured human THP-1 cells were used. All cell culture incubations were performed at 37° C. under 95% air/5% carbon dioxide. Cells were grown in Complete RPMI medium plus 10% FCS (Fetal Calf Serum). Complete RPMI medium is defined as RPMI medium (Sigma Cat.# R8005) containing […], 1 mM Na Pyruvate, 2 mM L-Glutamine, and Antibiotic-Antimyotic Solution (Sigma Cat.# A9909: 100U/ml Penicillin, 0.1 mg/ml Streptomycin, 0.251l/ml Amphotericin B). Cells were differentiated into macrophages by incubation in Complete RPMI medium plus 10% FCS (Fetal Calf Serum) plus 100 nM tetradecanoyl phorbol acetate for three days. After differentiation, the THP-1 macrophages were incubated in Complete RPMI medium plus 10% FCS (Fetal Calf Serum) with the test LXR agonist. After 6 hours at 37° C., the cells were harvested and total RNA prepared using the phenol/guanidine isothiocyanate method as supplied and described by Molecular Research Center, Inc. (TRI REAGENTφ Cat. No. TR 118). ABC1 mRNA levels in the total RNA were measured using the TaqMan® mRNA quantitation system, following protocols published by the manufacturer (Perkin-Elmer). The oligonucleotide PCR primers used to detect ABC1 were:
The oligonucleotide probe used was:
ABC1 mRNA levels in each sample were normalized to the mRNA levels for the 23 kDa highly basic protein. […]

- IC50 (human PPARδ): > 10 µM
- IC50 (human GST-LXRα receptor): 80 nM
- Ki (human GST-LXRα receptor; read-out: LXRα calculated Ki): ~30 nM
Structure (SMILES): CC(=O)Oc1ccc2c(c1)[C@@]1(C)CCC[C@](C)(C(=O)OC(=O)[C@@]3(C)CCC[C@]4(C)c5cc(OC(C)=O)ccc5CC[C@@H]34)[C@@H]1CC2 [Compound 1]
- Cholesterol efflux (% of cell contents) ([1]; acceptor 10 μg/ml apoA-I, DMSO control 6.4 ± 0.3): 10.3 ± 0.4 % of cell contents
- Cholesterol efflux (% of cell contents) ([1]; acceptor 25 μg/ml HDL, DMSO control 14.9 ± 0.5): 18.6 ± 0.7 % of cell contents
- fold induction at 0.1 µM (ABC1 mRNA): 6.9 ± 0.6
